Measurements reported in patent publication US12077503B2, “Substituted cyclic amides and their use as herbicides” (FMC CORPORATION, priority 2015, dated 2024).

What was measured:
Experiment in all cases: Test C preemergence
Format in all cases: in vivo
Settings in all cases: scale 0 to 100, 0 no effect, 100 complete control
[1] = system: Galium (catchweed bedstraw, Galium aparine)
Excerpt: (§1) Seeds of plant species selected from blackgrass (Alopecurus myosuroides), ryegrass, Italian (Italian ryegrass, Lolium multiflorum), wheat (winter wheat, Triticum aestivum), Galium (catchweed bedstraw, Galium aparine), corn (Zea mays), crabgrass, large (large crabgrass, Digitaria sanguinalis), foxtail, giant (giant foxtail, Setaria faberii), johnsongrass (Sorghum halepense), lambsquarters (Chenopodium album), morningglory (Ipomoea coccinea), nutsedge, yellow (yellow nutsedge, Cyperus esculentus), pigweed (Amaranthus retroflexus), ragweed (common ragweed, Ambrosia elatior), soybean (Glycine max), barnyardgrass (Echinochloa crus-galli), oilseed rape (Brassica napus), waterhemp (common waterhemp, Amaranthus rudis) and velvetleaf (Abutilon theophrasti) were planted into a blend of loam soil and sand and treated preemergence with test chemicals formulated in a non-phytotoxic solvent mixture which included a surfactant.
(§2) At the same time, plants selected from these crop and weed species and also Kochia (Kochia scoparia), oat, wild (wild oat, Avena fatua), and chickweed (common chickweed, Stellaria media) were planted in pots containing Sunshine Redi-Earth® planting medium comprising spaghnum peat moss, vermiculite, starter nutrients and dolomitic limestone and treated with postemergence applications of test chemicals formulated in the same manner. Plants ranged in height from 2 to 18 cm (1- to 4-leaf stage) for postemergence treatments. Treated plants and controls were maintained in a greenhouse for 13 to 15 d, after which time all species were compared to controls and visually evaluated. Plant response ratings, summarized in Table C, are based on a scale of 0 to 100 where 0 is no effect and 100 is complete control. A dash (-) response means no test result.

[2] = system: barnyardgrass (Echinochloa crus-galli)
Excerpt: as §1, §2

[3] = system: blackgrass (Alopecurus myosuroides)
Excerpt: as §1, §2

corn (Zea mays) = system: corn (Zea mays)
Excerpt: as §1, §2

[4] = system: crabgrass, large (large crabgrass, Digitaria sanguinalis)
Excerpt: as §1, §2

[5] = system: foxtail, giant (giant foxtail, Setaria faberii)
Excerpt: as §1, §2

[6] = system: lambsquarters (Chenopodium album)
Excerpt: as §1, §2

[7] = system: morningglory (Ipomoea coccinea)
Excerpt: as §1, §2

[8] = system: nutsedge, yellow (yellow nutsedge, Cyperus esculentus)
Excerpt: as §1, §2

[9] = system: oilseed rape (Brassica napus)
Excerpt: as §1, §2

[10] = system: pigweed (Amaranthus retroflexus)
Excerpt: as §1, §2

[11] = system: ragweed (common ragweed, Ambrosia elatior)
Excerpt: as §1, §2

[12] = system: ryegrass, Italian (Italian ryegrass, Lolium multiflorum)
Excerpt: as §1, §2

soybean (Glycine max) = system: soybean (Glycine max)
Excerpt: as §1, §2

[13] = system: velvetleaf (Abutilon theophrasti)
Excerpt: as §1, §2

[14] = system: waterhemp (common waterhemp, Amaranthus rudis)
Excerpt: as §1, §2

[15] = system: wheat (winter wheat, Triticum aestivum)
Excerpt: as §1, §2

CN1CC(c2ccc(C(F)(F)F)c(F)c2)C(C(=O)Nc2cccc(F)c2F)C1=O (stereo not drawn) [Compound 396]
Plant response rating, Galium ([1]; 31 g ai/ha): 90 | Plant response rating, Galium ([1]; 62 g ai/ha): 90 | Plant response rating, Galium ([1]; 125 g ai/ha): 100 | Plant response rating, Galium ([1]; 250 g ai/ha): 100 | Plant response rating, Barnyardgrass ([2]; 31 g ai/ha): 85 | Plant response rating, Barnyardgrass ([2]; 62 g ai/ha): 95 | Plant response rating, Barnyardgrass ([2]; 125 g ai/ha): 98 | Plant response rating, Barnyardgrass ([2]; 250 g ai/ha): 98 | Plant response rating, Blackgrass ([3]; 31 g ai/ha): 50 | Plant response rating, Blackgrass ([3]; 62 g ai/ha): 50 | Plant response rating, Blackgrass ([3]; 125 g ai/ha): 80 | Plant response rating, Blackgrass ([3]; 250 g ai/ha): 80 | Plant response rating, Corn (corn (Zea mays); 31 g ai/ha): 0 | Plant response rating, Corn (corn (Zea mays); 62 g ai/ha): 50 | Plant response rating, Corn (corn (Zea mays); 125 g ai/ha): 65 | Plant response rating, Corn (corn (Zea mays); 250 g ai/ha): 75 | Plant response rating, Crabgrass, Large ([4]; 31 g ai/ha): 95 | Plant response rating, Crabgrass, Large ([4]; 62 g ai/ha): 98 | Plant response rating, Crabgrass, Large ([4]; 125 g ai/ha): 98 | Plant response rating, Crabgrass, Large ([4]; 250 g ai/ha): 100 | Plant response rating, Foxtail, Giant ([5]; 31 g ai/ha): 95 | Plant response rating, Foxtail, Giant ([5]; 62 g ai/ha): 98 | Plant response rating, Foxtail, Giant ([5]; 125 g ai/ha): 98 | Plant response rating, Foxtail, Giant ([5]; 250 g ai/ha): 98 | Plant response rating, Lambsquarters ([6]; 31 g ai/ha): 50 | Plant response rating, Lambsquarters ([6]; 62 g ai/ha): 75 | Plant response rating, Lambsquarters ([6]; 125 g ai/ha): 70 | Plant response rating, Lambsquarters ([6]; 250 g ai/ha): 98 | Plant response rating, Morningglory ([7]; 31 g ai/ha): 10 | Plant response rating, Morningglory ([7]; 62 g ai/ha): 40 | Plant response rating, Morningglory ([7]; 125 g ai/ha): 60 | Plant response rating, Morningglory ([7]; 250 g ai/ha): 70 | Plant response rating, Nutsedge, Yellow ([8]; 31 g ai/ha): 0 | Plant response rating, Nutsedge, Yellow ([8]; 62 g ai/ha): 0 | Plant response rating, Nutsedge, Yellow ([8]; 125 g ai/ha): 30 | Plant response rating, Nutsedge, Yellow ([8]; 250 g ai/ha): 20 | Plant response rating, Oilseed Rape ([9]; 31 g ai/ha): 30 | Plant response rating, Oilseed Rape ([9]; 62 g ai/ha): 70 | Plant response rating, Oilseed Rape ([9]; 125 g ai/ha): 80 | Plant response rating, Oilseed Rape ([9]; 250 g ai/ha): 85 | Plant response rating, Pigweed ([10]; 31 g ai/ha): 85 | Plant response rating, Pigweed ([10]; 62 g ai/ha): 80 | Plant response rating, Pigweed ([10]; 125 g ai/ha): 90 | Plant response rating, Pigweed ([10]; 250 g ai/ha): 95 | Plant response rating, Ragweed ([11]; 31 g ai/ha): 65 | Plant response rating, Ragweed ([11]; 62 g ai/ha): 80 | Plant response rating, Ragweed ([11]; 125 g ai/ha): 85 | Plant response rating, Ragweed ([11]; 250 g ai/ha): 85 | Plant response rating, Ryegrass, Italian ([12]; 62 g ai/ha): 55 | Plant response rating, Ryegrass, Italian ([12]; 125 g ai/ha): 30 | Plant response rating, Ryegrass, Italian ([12]; 250 g ai/ha): 80 | Plant response rating, Soybean (soybean (Glycine max); 62 g ai/ha): 0 | Plant response rating, Soybean (soybean (Glycine max); 125 g ai/ha): 0 | Plant response rating, Soybean (soybean (Glycine max); 250 g ai/ha): 0 | Plant response rating, Velvetleaf ([13]; 62 g ai/ha): 40 | Plant response rating, Velvetleaf ([13]; 125 g ai/ha): 65 | Plant response rating, Velvetleaf ([13]; 250 g ai/ha): 60 | Plant response rating, Waterhemp ([14]; 62 g ai/ha): 90 | Plant response rating, Waterhemp ([14]; 125 g ai/ha): 95 | Plant response rating, Waterhemp ([14]; 250 g ai/ha): 95 | Plant response rating, Wheat ([15]; 62 g ai/ha): 10 | Plant response rating, Wheat ([15]; 125 g ai/ha): 70 | Plant response rating, Wheat ([15]; 250 g ai/ha): 90

CN1CC(c2ccc(C(F)(F)F)c(F)c2)C(C(=O)Nc2ccccc2F)C1=O (stereo not drawn) [Compound 399]
Plant response rating, Galium ([1]; 31 g ai/ha): 80 | Plant response rating, Galium ([1]; 62 g ai/ha): 85 | Plant response rating, Galium ([1]; 125 g ai/ha): 90 | Plant response rating, Galium ([1]; 250 g ai/ha): 90 | Plant response rating, Barnyardgrass ([2]; 31 g ai/ha): 95 | Plant response rating, Barnyardgrass ([2]; 62 g ai/ha): 98 | Plant response rating, Barnyardgrass ([2]; 125 g ai/ha): 100 | Plant response rating, Barnyardgrass ([2]; 250 g ai/ha): 98 | Plant response rating, Blackgrass ([3]; 31 g ai/ha): 50 | Plant response rating, Blackgrass ([3]; 62 g ai/ha): 80 | Plant response rating, Blackgrass ([3]; 125 g ai/ha): 70 | Plant response rating, Blackgrass ([3]; 250 g ai/ha): 90 | Plant response rating, Corn (corn (Zea mays); 31 g ai/ha): 35 | Plant response rating, Corn (corn (Zea mays); 62 g ai/ha): 40 | Plant response rating, Corn (corn (Zea mays); 125 g ai/ha): 65 | Plant response rating, Corn (corn (Zea mays); 250 g ai/ha): 60 | Plant response rating, Crabgrass, Large ([4]; 31 g ai/ha): 98 | Plant response rating, Crabgrass, Large ([4]; 62 g ai/ha): 98 | Plant response rating, Crabgrass, Large ([4]; 125 g ai/ha): 100 | Plant response rating, Crabgrass, Large ([4]; 250 g ai/ha): 100 | Plant response rating, Foxtail, Giant ([5]; 31 g ai/ha): 95 | Plant response rating, Foxtail, Giant ([5]; 62 g ai/ha): 95 | Plant response rating, Foxtail, Giant ([5]; 125 g ai/ha): 98 | Plant response rating, Foxtail, Giant ([5]; 250 g ai/ha): 98 | Plant response rating, Lambsquarters ([6]; 31 g ai/ha): 90 | Plant response rating, Lambsquarters ([6]; 62 g ai/ha): 85 | Plant response rating, Lambsquarters ([6]; 125 g ai/ha): 85 | Plant response rating, Lambsquarters ([6]; 250 g ai/ha): 98 | Plant response rating, Morningglory ([7]; 31 g ai/ha): 40 | Plant response rating, Morningglory ([7]; 62 g ai/ha): 40 | Plant response rating, Morningglory ([7]; 125 g ai/ha): 30 | Plant response rating, Morningglory ([7]; 250 g ai/ha): 55 | Plant response rating, Nutsedge, Yellow ([8]; 31 g ai/ha): 0 | Plant response rating, Nutsedge, Yellow ([8]; 62 g ai/ha): 0 | Plant response rating, Nutsedge, Yellow ([8]; 125 g ai/ha): 0 | Plant response rating, Nutsedge, Yellow ([8]; 250 g ai/ha): 0 | Plant response rating, Oilseed Rape ([9]; 31 g ai/ha): 35 | Plant response rating, Oilseed Rape ([9]; 62 g ai/ha): 30 | Plant response rating, Oilseed Rape ([9]; 125 g ai/ha): 70 | Plant response rating, Oilseed Rape ([9]; 250 g ai/ha): 85 | Plant response rating, Pigweed ([10]; 31 g ai/ha): 70 | Plant response rating, Pigweed ([10]; 62 g ai/ha): 75 | Plant response rating, Pigweed ([10]; 125 g ai/ha): 90 | Plant response rating, Pigweed ([10]; 250 g ai/ha): 95 | Plant response rating, Ragweed ([11]; 31 g ai/ha): 50 | Plant response rating, Ragweed ([11]; 62 g ai/ha): 50 | Plant response rating, Ragweed ([11]; 125 g ai/ha): 65 | Plant response rating, Ragweed ([11]; 250 g ai/ha): 80 | Plant response rating, Ryegrass, Italian ([12]; 62 g ai/ha): 50 | Plant response rating, Ryegrass, Italian ([12]; 125 g ai/ha): 75 | Plant response rating, Ryegrass, Italian ([12]; 250 g ai/ha): 50 | Plant response rating, Soybean (soybean (Glycine max); 62 g ai/ha): 0 | Plant response rating, Soybean (soybean (Glycine max); 125 g ai/ha): 0 | Plant response rating, Soybean (soybean (Glycine max); 250 g ai/ha): 0 | Plant response rating, Velvetleaf ([13]; 62 g ai/ha): 20 | Plant response rating, Velvetleaf ([13]; 125 g ai/ha): 50 | Plant response rating, Velvetleaf ([13]; 250 g ai/ha): 60 | Plant response rating, Waterhemp ([14]; 62 g ai/ha): 80 | Plant response rating, Waterhemp ([14]; 125 g ai/ha): 90 | Plant response rating, Waterhemp ([14]; 250 g ai/ha): 98 | Plant response rating, Wheat ([15]; 62 g ai/ha): 15 | Plant response rating, Wheat ([15]; 125 g ai/ha): 80 | Plant response rating, Wheat ([15]; 250 g ai/ha): 75
